Assay results reported in PubChem BioAssay AID2060495 (Molecular Pharmacology Branch, DTP, NCI, 2025).
Several values for one entry are separate records, joined by “and”; a condition that tells them apart may be missing. Equal values may be shown once.

System: 521955-158-R2-J5-PDC complex spheroid viability
Experiment: Anticancer human tumor 521955-158-R2-J5-PDC patient-derived pancreatic carcinoma cell line growth inhibition [GQUAD]
Conditions: for viability, T/C: stronger effect = lower value; active means viability on the fitted dose curve at most 10% of control; inactive means the rest
Source text: DNA G-quadruplex Stabilizer Agents in Combinations in Complex Spheroids
A high-throughput screen of multi-cell type tumor spheroids was designed to identify active combinations of DNA G-quadruplex stabilizer agents and targeted small molecules. Complex spheroids include a stromal component modeled by human endothelial cells (HUVEC) and fibroblasts modeled by human mesenchymal stem cells (MSCs). The concentration ranges selected for each drug and investigational agent were based upon clinically achievable concentrations if the clinical Cmax of the agent was known.
Compounds. The drugs and investigational agents: pidnarulex (CX-5461; NSC782164), APTO-253 (NSC789042), BRACO-19 (NSC847499), peposertib (NSC802822), ceralasertib (NSC780249), elimusertib (NSC800525), camonsertib (NSC841442), AZD-1390 (NSC803789), olaparib (NSC753686), talazoparib (NSC767125), ART-558 (NSC835418), sotorasib (NSC818433), MRTX-1133 (NSC836407), SN-38 (NSC673596), topotecan (NSC609699), etoposide (NSC141540), doxorubicin (NSC123127), gemcitabine (NSC613327), 5-fluorouracil (NSC19893), paclitaxel (NSC125973), vemurafenib (NSC761431), panobinostat (NSC761190), R-306465 (JNJ-16241199; NSC773264), adavosertib (NSC754352), TP-3654 (NSC805149), carboplatin (NSC241240), KSQ-4279 (NSC840948), and staurosporine (NSC755774) were obtained from the National Cancer Institute (NCI) Developmental Therapeutics Program Chemical Repository (34). The FDA-approved anticancer drug set is available from the NCI Developmental Therapeutics Program. […] The stock solutions were prepared in dimethyl sulfoxide (DMSO, Sigma-Aldrich, St. Louis, MO, cat. D2650) at 800-fold the tested concentration and stored at -70 degrees C prior to their use. All drugs and investigational agents were tested over a range starting from a high concentration at or near the clinical Cmax and decreasing in half-log increments. If the clinical Cmax for an agent had not been determined, the highest concentration tested was 10 microM.
2.3 Cell Culture. All cells were maintained in an incubator at 37 degrees C and 5% CO2 with 95% humidity. The PDC lines were cultured according to standard operating procedures established by the NCI PDMR. All PDCs were thawed and cultured in Matrigel-coated flasks prepared with a working solution of 1X Ham's F-12 nutrient mix, without supplementation (Invitrogen, cat. 11765054), 100 U/mL penicillin-streptomycin (Invitrogen, cat. 15140122), and 2.5% Matrigel (Corning Inc., cat. 354248) for the first three passages. The 857933-349-R-J2-PDC line was cultured in 6C/Colon 1B media, which includes advanced DMEM/F-12 (Thermo Fisher Scientific, cat. 12634028), 10 mM HEPES (Thermo Fisher Scientific, cat. 15630080), 1X GlutaMAX supplement (Thermo Fisher Scientific, cat. 35050061), 0.1 mg/mL primocin (InvivoGen, cat. ant-pm-2), 10% defined fetal bovine serum, heat inactivated (HyClone Laboratories Inc., cat. SH30070.03HI), 50% L-WRN conditioned media (ATCC, cat. CRL-3276), 1.25 mM N-Acetyl-L-cysteine (Sigma-Aldrich, cat. A9165), 10 mM nicotinamide (Sigma-Aldrich, cat. N0636), 1X B-27 supplement (Thermo Fisher Scientific, cat. 17504044), 1X N-2 supplement (Thermo Fisher Scientific, cat. 17502048), 10 microM Y-27632 dihydrochloride (Tocris Bioscience, cat. 1254), and 50 ng/mL human EGF recombinant protein (Thermo Fisher Scientific, cat. PHG0311). The 485176-168-R4-J1-PDC line was cultured in Panc media, which includes all 6C/Colon 1B media components plus 100 ng/mL human FGF-10 (Thermo Fisher Scientific, cat. 100-26), 500 nM SB-431542 (Selleckchem, cat. S1067), and gastrin (Tocris, cat. 3006).
[…]
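Further: spheroids exposed to agents for one week before reading.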

Nc1ccn(C2OC(CO)C(O)C2(F)F)c(=O)n1 (stereo unspecified)
524 nM and 534 nM and 518 nM: IC50 (curve of compound)
inactive: viability, T/C (compound 0.0316 µM) 95.8% and 80% and 84.4% | viability, T/C (compound 0.1 µM) 86% and 65.7% and 69.4% | viability, T/C (compound 0.316 µM) 75.9% and 57.5% and 71% | viability, T/C (compound 1 µM) 17% and 46.2% and 22.6%
9.14% and 18.9% and 7.37%: viability, T/C (compound 3.16 µM)
8.29% and 13.5% and 6.71%: viability, T/C (compound 10 µM)

CC(=O)O[C@H]1C(=O)[C@@]2(C)[C@H]([C@H](OC(=O)c3ccccc3)[C@]3(O)C[C@H](OC(=O)[C@H](O)[C@@H](NC(=O)c4ccccc4)c4ccccc4)C(C)=C1C3(C)C)[C@]1(OC(C)=O)CO[C@@H]1C[C@@H]2O
50.9 nM and < 31.6 nM: IC50 (curve of compound)
inactive: viability, T/C (compound 0.0316 µM) 55.7% and 44.9% and 22.1% | viability, T/C (compound 0.1 µM) 41.9% and 46.4% and 14.2% | viability, T/C (compound 0.316 µM) 27.7% and 32.3% and 8.41% | viability, T/C (compound 1 µM) 33.1% and 30.1% and 9.52% | viability, T/C (compound 3.16 µM) 22.9% and 28.9% and 11.5% | viability, T/C (compound 10 µM) 29.9% and 31.3% and 16%

Cc1[nH]c2ccccc2c1CCNCc1ccc(/C=C/C(=O)NO)cc1
118 nM and 111 nM and 103 nM: IC50 (curve of compound)
inactive: viability, T/C (compound 0.000999 µM) 110% and 125% and 100% | viability, T/C (compound 0.00316 µM) 103% and 117% and 100% | viability, T/C (compound 0.00999 µM) 139% and 135% and 112% | viability, T/C (compound 0.0316 µM) 103% and 110% and 102% | viability, T/C (compound 0.0999 µM) 55.7% and 53.2% and 51% | viability, T/C (compound 0.316 µM) 20.8% and 22.1% and 11.1%

C=CCn1c(=O)c2cnc(Nc3ccc(N4CCN(C)CC4)cc3)nc2n1-c1cccc(C(C)(C)O)n1 + Cc1cnc(CNC(=O)c2c(=O)c3ccc(N4CCCN(C)CC4)nc3n3c2sc2ccccc23)cn1
active: viability, T/C (second compound 0.0316 µM, first compound 3.16 µM) 7.12% | viability, T/C (second compound 0.0316 µM, first compound 10 µM) 11.2% | viability, T/C (second compound 3.16 µM, first compound 3.16 µM) 11.7% | viability, T/C (second compound 3.16 µM, first compound 10 µM) 2.19% | viability, T/C (second compound 10 µM, first compound 1 µM) 8.4% | viability, T/C (second compound 10 µM, first compound 3.16 µM) 0.28% | viability, T/C (second compound 10 µM, first compound 10 µM) 0.23%
77.1 nM: IC50 (curve of first compound, second compound 0.0316 µM)
inactive: viability, T/C (second compound 0.0316 µM, first compound 0.0316 µM) 67% | viability, T/C (second compound 0.0316 µM, first compound 0.1 µM) 44.9% | viability, T/C (second compound 0.0316 µM, first compound 0.316 µM) 19.5% | viability, T/C (second compound 0.0316 µM, first compound 1 µM) 10% | viability, T/C (second compound 0.1 µM, first compound 0.0316 µM) 53.5% | viability, T/C (second compound 0.1 µM, first compound 0.1 µM) 56% | viability, T/C (second compound 0.1 µM, first compound 0.316 µM) 30.3% | viability, T/C (second compound 0.1 µM, first compound 1 µM) 17.6% | viability, T/C (second compound 0.1 µM, first compound 3.16 µM) 13.1% | viability, T/C (second compound 0.1 µM, first compound 10 µM) 11.6% | viability, T/C (second compound 0.316 µM, first compound 0.0316 µM) 35.1% | viability, T/C (second compound 0.316 µM, first compound 0.1 µM) 45.4% | viability, T/C (second compound 0.316 µM, first compound 0.316 µM) 28.4% | viability, T/C (second compound 0.316 µM, first compound 1 µM) 20.1% | viability, T/C (second compound 0.316 µM, first compound 3.16 µM) 15.9% | viability, T/C (second compound 0.316 µM, first compound 10 µM) 11.2% | viability, T/C (second compound 1 µM, first compound 0.0316 µM) 17.4% | viability, T/C (second compound 1 µM, first compound 0.1 µM) 19.6% | viability, T/C (second compound 1 µM, first compound 0.316 µM) 21.1% | viability, T/C (second compound 1 µM, first compound 1 µM) 17.7% | viability, T/C (second compound 1 µM, first compound 3.16 µM) 14.3% | viability, T/C (second compound 1 µM, first compound 10 µM) 10.1% | viability, T/C (second compound 3.16 µM, first compound 0.0316 µM) 13.3% | viability, T/C (second compound 3.16 µM, first compound 0.1 µM) 16.3% | viability, T/C (second compound 3.16 µM, first compound 0.316 µM) 17.8% | viability, T/C (second compound 3.16 µM, first compound 1 µM) 11.6% | viability, T/C (second compound 10 µM, first compound 0.0316 µM) 11.6% | viability, T/C (second compound 10 µM, first compound 0.1 µM) 15% | viability, T/C (second compound 10 µM, first compound 0.316 µM) 15.4%
124 nM: IC50 (curve of first compound, second compound 0.1 µM)
< 31.6 nM: IC50 (curve of first compound, second compound 0.316 µM) | IC50 (curve of first compound, second compound 1 µM) | IC50 (curve of first compound, second compound 3.16 µM) | IC50 (curve of first compound, second compound 10 µM)

CCCS(=O)(=O)Nc1ccc(F)c(C(=O)c2c[nH]c3ncc(-c4ccc(Cl)cc4)cc23)c1F
inactive: viability, T/C (compound 0.0316 µM) 112% and 121% and 109% | viability, T/C (compound 0.1 µM) 83.8% and 96.3% and 95% | viability, T/C (compound 0.316 µM) 73.2% and 96.7% and 148% | viability, T/C (compound 1 µM) 102% and 108% and 152% | viability, T/C (compound 3.16 µM) 217% and 247% and 153% | viability, T/C (compound 10 µM) 92.2% and 112% and 62.1%
> 10000 nM: IC50 (curve of compound)

C#Cc1c(F)ccc2cc(O)cc(-c3ncc4c(N5CC6CCC(C5)N6)nc(OCC56CCCN5CC(F)C6)nc4c3F)c12 (stereo unspecified)
inactive: viability, T/C (compound 0.0316 µM) 40.9% and 72.8% and 65.6% | viability, T/C (compound 0.1 µM) 32.6% and 85% and 56.9% | viability, T/C (compound 0.316 µM) 31.2% and 57.2% and 57.9% | viability, T/C (compound 1 µM) 24.3% and 54.7% and 39.5% | viability, T/C (compound 3.16 µM) 27.9% and 53.1% and 48.7% | viability, T/C (compound 10 µM) 17.8% and 37.3% and 35.5%
